Like-named read-outs stand apart in the source and are kept apart here.
What was measured:
[1] = tested on: mouse breast tumor 4T1 cells; assay: Wound-healing assay, serum-induced migration of 4T1 cells; type: cell-based; conditions: 2 μM
Description: (§1) Cells. Mouse 4T1 mammary tumor cells and human MDA-MB-231 breast tumor cells were obtained from ATCC and have been described previously (Shan et al. 2005, Yang et al. 2005). 4T1 cells were cultured in RPMI 1640 medium supplemented with 10% FBS. MDA-MB-231 cells were cultured in DMEM supplemented with 10% FBS. Wound-healing assay. The wound-healing assay involves observing whether confluent cells can migrate across a scrape or wound in the cell layer. Cell migration assays were performed as described previously (Yang et al. 2005, Shan et al 2006). Tumor cells were plated in a 24-well plate coated with gelatin in standard media. After the cells grew to confluence, wounds were made in the confluent layer of cell using a sterile instrument such as a sterile pipette tip. The cells were washed with Phosphate Buffered Saline (PBS) or other sterile solutions and then the migration was induced by adding medium supplemented with 10% FBS. When the wound for the positive control closed, cells were fixed with 3.7% formaldehyde and stained with crystal violet staining solution. […] Photographs several random regions of the filter facing the second chamber are taken and the number of cells counted to calculate the average number of cells that had transmigrated.

4T1 cells [2] = assay: Boyden chamber cell migration assay, serum-induced migration of 4T1 cells; type: cell-based, mouse; conditions: FIGS. 1C and 1D
Description: as §1, with “media.” for “media. After the cells grew to confluence, wounds were made in the confluent layer of cell using a sterile instrument such as a sterile pipette tip. The cells were washed with Phosphate Buffered Saline (PBS) or other sterile solutions and then the migration was induced by adding medium supplemented with 10% FBS. When the wound for the positive control closed, cells were fixed with 3.7% formaldehyde and stained with crystal violet staining solution.”
(§2) Boyden Chamber Cell Migration Assay. […] Three randomly selected fields (10× objectives) on the lower side of the insert were photographed, and the migrated cells were counted. The migration was expressed as either the average number of migrated cells in a field or as percentage of migrated cells in positive control. Percentage was calculated with the formula P=100×(M−Mnc)/Mpc, where P is the percentage of migrated cells, M is the number of migrated cells, Mnc is the number of migrated cells in negative controls, and Mpc is the number of migrated cells in positive controls.

[3] = tested on: human breast tumor MDA-MB-231 cells; assay: Wound-healing assay, serum-induced migration of MDA-MB-231 cells; type: cell-based; conditions: 20 μM
Description: as §1

[4] = tested on: mouse embryonic fibroblast (MEF) cells; assay: Wound-healing assay, serum-induced migration of MEF cells; type: cell-based; conditions: 200 μM
[5] = tested on: human breast tumor MDA-MB 231 cells; assay: Cell migration assay, MDA-MB-231 cells; type: cell-based
Description: as §1, with “media.” for “media. After the cells grew to confluence, wounds were made in the confluent layer of cell using a sterile instrument such as a sterile pipette tip. The cells were washed with Phosphate Buffered Saline (PBS) or other sterile solutions and then the migration was induced by adding medium supplemented with 10% FBS. When the wound for the positive control closed, cells were fixed with 3.7% formaldehyde and stained with crystal violet staining solution.”
as §2

[6] = tested on: human prostate tumor PC-3 cells; assay: Cell migration assay, PC-3 cells; type: cell-based
[7] = tested on: human colon tumor Lovo cells; assay: Cell migration assay, Lovo cells; type: cell-based
4T1 cells [8] = conditions: serum, Shan et al. 2005; cited from earlier work
fascin = fascin (Homo sapiens, UniProt Q16658); assay: GST-fascin and biotin-macroketone interaction; type: binding; design: made in house; host or cells: Escherichia coli BL21; conditions: excess unlabeled compound
Description: Whole cell lysates from 4T1 mouse breast tumor cells were made. After preclearing the cell lysate with immobilized neutravidin biotin binding protein (Pierce, IL, USA) to remove biotin and avidin-binding proteins, the cell lysates were loaded to a column packed with the biotin-labeled macroketone (conjugated to neutravidin beads). A control column packed with free biotin and neutravidin beads was run side-by-side. After washing the column with 10 bed volumes of lysis buffer with 300 mM NaCl, the bound proteins were eluted with 0.1 M Glycine-HCl at pH 2.8 according to the manufacturer's instruction. […] Protein Expression and Purification. Recombinant GST-fascin fusion protein was produced in BL21 Escherichia coli. A 1-liter culture was grown to an A600 reading of 1.0 and then induced by addition of 0.3 mM isopropyl 1-thio-D-galactopyranoside (IPTG) for 12 hours at 25° C. Cells were flash frozen and then lysed by sonication in Tris-buffered saline. The supernatant was then incubated with glutathione-Sepharose for 2 h at 4° C. After extensive washing, GST-fascin was eluted and concentrated with a Centricon Plus-20 (Millipore). To remove the GST tag from the fusion protein, beads were incubated with thrombin overnight at 4° C. The supernatant was collected and concentrated. GST-fascin and Biotin-macroketone Interaction. […] Proteins associated with biotin-macroketone were precipitated with Untralink-immobilized NeutrAvidin agarose (Pierce). After extensive washing, bound proteins were eluted with SDS sample buffer and resolved by 10% SDS-PAGE. F-Actin Bundling Assay. Actin bundling activity was measured by low speed centrifugation assay and fluorescence microscopy. In low-speed centrifugation assay, monomeric rabbit G-actin was induced to polymerize at room temperature in F-actin buffer (20 mM Tris-HCl at pH 8, 1 mM ATP, 1 mM DTT, 2 mM MgCl2 and 100 mM KCl). Recombinant fascin proteins or control buffer were subsequently incubated with F-actin for 60 min at room temperature and centrifuged for 30 min at 10,000 g in an Eppendorf 5415D table-top centrifuge.

4T1 tumor cells = assay: 4T1 mouse mammary tumor model, spontaneous lung metastasis; type: in vivo
4T1 cells [9] = conditions: read-out: IC50, 4T1 cell migration, cited from earlier work
[10] = Gaul et al. 2004; cited from earlier work
[11] = tested on: several types of tumor cells; conditions: Nakae et al. 2000, cited from earlier work
[12] = Njardarson et al. 2004, Gaul et al. 2004

For COC1C=CCCCCC(=O)NCC(C)=CC(C)C1O (centres unmarked) [macrolactam, Migrastatin lactam], the “inhibition of serum-induced migration (wound-healing)” value [1] was “inhibited the migration”, the IC50 (4T1 cells [2]) was 0.255 µM and the “inhibition of serum-induced migration (wound-healing)” value [3] was “inhibited the migration”. For the same compound, the “effect on serum-induced migration (wound-healing)” value [4] was “had no effect”, the inhibition of migration [5] was “inhibited the migration” and the inhibition of migration [6] was “inhibited the migration”. The inhibition of migration [7] was “inhibited the migration”, the “formation of lamellipodia at the leading edge” value (4T1 cells [8]) was “inhibited the formation of lamellipodia” and the “competition of binding of biotin-conjugated macroketone to fascin” value (fascin) was “competed the binding”.
For COC1C=CCCCCC(=O)OCC(C)=CC(C)C1O (centres unmarked) [macrolactone], the “effect on 4T1 tumor metastasis” value (4T1 tumor cells; 20 mg/kg) is given as “statistically significant, it was much less than those of macroketone and macrolactam”, the IC50 (4T1 cells [9]; macrolactone, Gaul et al. 2004) is given as 0.024 µM and the “half-life in mouse plasma” value [10] is given as < 5 min.
For C=CC(OC)C(O[Si](C)(C)C(C)(C)C)C(C)C=C(C)CO (centres unmarked) [migrastatin semi-core, reference compound], the “effect on 4T1 tumor metastasis” value (4T1 tumor cells; 10 and 20 mg/kg) is listed as “did not significantly reduce” and the IC50 (4T1 cells [9]; [12]) is listed as 40 µM.
For CO[C@H]1/C=C/CC/C=C/C(=O)OC([C@H](C)C(=O)CCCC2CC(=O)NC(=O)C2)/C(C)=C\[C@@H](C)[C@@H]1O (some centres unmarked) [migrastatin, Migrastatin], the IC50 (4T1 cells [9]; [12]) is listed as 29 µM, the “biosyntheses of DNA, RNA, and protein” value [11] is listed as “has no effect” and the “migration of tumor cells in vitro” value ([11]; high micromolar concentrations) is listed as “inhibits the migration”.

Source: patent US20100297109A1, “METHODS FOR INHIBITING FASCIN” (Cornell University, priority 2007, published 2010)
